The values that follow come from patent publication US9809623B2, “α4β7 peptide monomer and dimer antagonists” (Protagonist Therapeutics, Inc., priority 2014, dated 2017).

Numbered stars: 1 amine (or outer) side, 2 acyl side, 3 side chain; on linkers, the order of the positions; unused ones are H or OH. Bridge positions count the residues as written; N and C are the ends. Square brackets hold non-standard residues; d marks the D form. Peptide text beside a SMILES is read from it. I, II: the chains in the order shown. X1 = O=C(CCOCCOCCOCCOCCOCCOCCOCCOCCOCCOCCOCCOCCOCCOCCOCCOCCOCCOCCOCCOCCOCCOCCOCCOCCOCCOCCC(=O)[*:2])[*:1]; 2Nal = N[C@@H](Cc1ccc2ccccc2c1)C(=O)O; Diglycolyl = O=C(COCC(=O)[*:2])[*:1]; NMeR = CN[C@@H](CCCNC(=N)N)C(=O)O; Pen = CC(C)(S)[C@H](N)C(=O)O

The target in data set [1] is T1, α4β1 (Homo sapiens, UniProt P05556+P13612, DEL729-798).
T1 construct: purchased R&D Systems 5668-A4
In words: α4β1-VCAM Competition ELISA. In kind it is binding. Conditions: Table 3-B, Selectivity (α4β1); range classes; read-out: α4β1 ELISA IC50. Summed up: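 ELISA plates were coated with VCAM-1 Fc at 400 ng/well. Peptide dilutions (highest final 100 μM) and 60 nM α4β1 were incubated 2 h at 37 °C in pH 7.6 Tris buffer containing 1 mM Mn2+ or Mg2+. Integrin retained on the plate was detected by 9F10 antibody, then HRP secondary, with TMB absorbance at 450 nm.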
On the technique in general: ELISA stands for enzyme-linked immunosorbent assay.

Data set [2] addresses α4β1 (Homo sapiens, UniProt P05556+P13612). In words: α4β1-VCAM Cell Adhesion Assay (Jurkat E6.1 human cells). It counts as cell-based. Set-up: host or cells: Jurkat E6.1 human T cells. The note with it: Table 3-B, Selectivity (α4β1); range classes; read-out: α4β1 cell IC50. As for the experimental part:
Jurkat E6.1 human cells (Sigma #88042803) were cultured in RPMI 1640 HEPES medium (Invitrogen #22400-089) supplemented with 10% serum (Fetal Bovine Serum, Invitrogen #16140-071), 1 mM sodium pyruvate (Invitrogen #11360-070), 2 mM L-glutamine (Invitrogen #25030-081) and Penicillin-Streptomycin (Invitrogen #15140-122) at 100 units of penicillin and 100 μg of streptomycin per ml. The cells were washed two times in DMEM medium (ATCC #30-2002) supplemented with 0.1% BSA, 10 mM HEPES pH 7 and 1 mM MnCl2. The cells were re-suspended in supplemented DMEM medium at a density of 4×10^6 cells/ml.
A Nunc MaxiSorp plate was coated with rh VCAM-1/CD106 Fc chimera (R&D #862-VC) at 400 ng per well in 50 ul per well in 1×PBS and incubated at 4° C. overnight. The solution was then removed by shaking, blocked with 250 ul per well PBS containing 1% BSA, and incubated at 37° C. for 1 hr. The solution was removed by shaking. Peptides were diluted by serial dilution in a final volume of 50 ul per well (2× concentration). To each well, 50 ul of cells (200,000 cells) were added and the plate was incubated at 37° C., 5% CO2 for 30-45 min to allow cell adhesion. The wells were washed manually three times (100 ul per wash) with supplemented DMEM. After the final wash, 100 ul/well of supplemented DMEM and 10 ul/well of MTT reagent (ATTC cat#30-1010K) were added. The plate was incubated at 37° C., 5% CO2 for 2-3 hrs until a purple precipitate was visible. 100 ul of Detergent Reagent (ATTC cat#30-1010K) was added to each well. The plate was covered from the light, wrapped in Parafilm to prevent evaporation, and left overnight at room temperature in the dark. The plate was shaken for 5 min and the absorbance at 570 nm was measured. To calculate the dose response, the absorbance value of control wells not containing cells was subtracted from each test well.

The nature of data set [3]: Simulated Gastric Fluid (SGF) Assay. Conditions: pig, simulated gastric fluid (SGF) with porcine pepsin, pH 2; Table 4-C, t1/2. It counts as in vitro ADME. As for the experimental part:
SGF was prepared by adding 20 mg NaCl, 32 mg porcine pepsin (MP Biochemicals, catalog 02102599), and 70 μl HCl to 10 ml water (final pH=2). Aliquots of SGF (0.5 ml each) were pre-warmed at 37° C. For each peptide tested, to start the reaction, 1 μl of peptide stock solution (10 mM in DMSO) was added to 0.5 ml SGF and thoroughly mixed such that the final peptide concentration was 20 μM. The reactions were incubated at 37° C. with gentle shaking. At each time point (0, 15, 30, 60 min), 50 μl aliquots were removed and added to 200 ul acetonitrile containing 0.1% formic acid to quench the reaction. Samples were stored at 4° C. until the end of the experiment and centrifuged at 10,000 rpm for 5 minutes. Aliquots of the supernatant were removed, diluted 1:1 into distilled water containing internal standard, and analyzed by LCMS/MS. Percent remaining at each timepoint was calculated based on the peak area response ratio of test compound to internal standard. Time 0 was set to 100%, and all later timepoints were calculated relative to time 0. Half-lives were calculated by fitting to a first-order exponential decay equation using GraphPad.

The nature of data set [4]: Simulated Intestinal Fluid (SIF) Stability Assay. It counts as in vitro ADME, porcine. The note with it: pig, simulated intestinal fluid (SIF) with 1% porcine pancreatin, pH 6.5, Table 4-C, t1/2; > means assay stopped at that time; read-out: SIF (porcine) Min. The method, boiled down:
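Intestinal stability: percent peptide remaining over time, by LC-MS/MS peak-area ratio to internal standard, fitted to first-order decay for half-life. Conditions: 22 μM peptide, 1% pancreatin in pH 6.5 blank FASSIF, 37 °C.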

A further data set is described as follows: Plasma Stability Assay. In kind it is in vitro ADME. Conditions: rat, Table 4-C, t1/2. On the procedure:
0.5 mL of rat plasma (one tube per peptide, volume depends on how many time points are to be collected, 50 μL per time point) was added to each well of a 96-well polypropylene plate, and the tubes were incubated in a heated water bath, preset to 37° C. with gentle shaking. 1 μL of 10 mM peptide stock solution was added to each tub, and then 200 μL of Acetonitrile w/0.1% Formic Acid was added to each tube (1:4). Samples were collected at the following time points: 0, 10, 30, 45, 60, 120, 180 mins. When all time points were collected, the plate was centrifuged at 5000 rpm for 5 mins. LCM analysis was performed by pipetting 100 μL of each sample to appropriate well of a 96-well deep plate. 100 μL of an internal standard peptide (1 ug/mL) was added in Mobile Phase A to each well. The plate was vortexed and injected

The target in the next data set is T2, rh integrin α4β7 (Homo sapiens, UniProt P13612+P26010).
T2 construct: purchased R&D Systems 5397-A30
In words: α4β7-MAdCAM Competition ELISA. In kind it is binding. Conditions: Table 4-B; read-out: ELISA α4β7 IC50. The method, boiled down:
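Competition read-out was A450 after anti-human IgG1-HRP and TMB detection of bound recombinant human MAdCAM-1 (10 nM final). Peptides were serially diluted 3-fold from a final 10 μM and equilibrated 1 h at room temperature on nickel-captured α4β7 (800 ng/well). The buffer was Tris pH 7.6 with 1 mM Mn2+ or Mg2+.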

Data set [5] is described as follows: Dithiothreitol (DTT) Redox Stability Assay. In kind it is physicochemical. Conditions: Table 4-C, t1/2, 0.5 mM DTT. On the procedure: For each peptide tested, the DTT stability assay was conducted by adding 5 μl of a 10 mM peptide stock solution in DMSO to 1 ml of 100 mM Tris-Cl, pH 7.5 (final peptide concentration is 50 μM). At time 0 min, 5 ul of a freshly thawed 100 mM DTT solution was added to the incubation tube containing the peptide, such that the final DTT concentration was 0.5 mM. The reactions were incubated at room temperature. At different time points up to 120 minutes (20 min, 40 min, 80 min, 120 min), 50 ul aliquots were removed, and the reaction was quenched by adding 10 μl of 5M acetic acid. To measure disappearance of the parent peptide, the quenched samples (30 μl) were analyzed by reverse phase HPLC and UV absorbance at 220 nm. The fraction oxidized remaining was graphed versus time, and half-lives were calculated by fitting to a first-order exponential decay equation using Excel.

T2 sequence (P13612 34-977 limits assumed): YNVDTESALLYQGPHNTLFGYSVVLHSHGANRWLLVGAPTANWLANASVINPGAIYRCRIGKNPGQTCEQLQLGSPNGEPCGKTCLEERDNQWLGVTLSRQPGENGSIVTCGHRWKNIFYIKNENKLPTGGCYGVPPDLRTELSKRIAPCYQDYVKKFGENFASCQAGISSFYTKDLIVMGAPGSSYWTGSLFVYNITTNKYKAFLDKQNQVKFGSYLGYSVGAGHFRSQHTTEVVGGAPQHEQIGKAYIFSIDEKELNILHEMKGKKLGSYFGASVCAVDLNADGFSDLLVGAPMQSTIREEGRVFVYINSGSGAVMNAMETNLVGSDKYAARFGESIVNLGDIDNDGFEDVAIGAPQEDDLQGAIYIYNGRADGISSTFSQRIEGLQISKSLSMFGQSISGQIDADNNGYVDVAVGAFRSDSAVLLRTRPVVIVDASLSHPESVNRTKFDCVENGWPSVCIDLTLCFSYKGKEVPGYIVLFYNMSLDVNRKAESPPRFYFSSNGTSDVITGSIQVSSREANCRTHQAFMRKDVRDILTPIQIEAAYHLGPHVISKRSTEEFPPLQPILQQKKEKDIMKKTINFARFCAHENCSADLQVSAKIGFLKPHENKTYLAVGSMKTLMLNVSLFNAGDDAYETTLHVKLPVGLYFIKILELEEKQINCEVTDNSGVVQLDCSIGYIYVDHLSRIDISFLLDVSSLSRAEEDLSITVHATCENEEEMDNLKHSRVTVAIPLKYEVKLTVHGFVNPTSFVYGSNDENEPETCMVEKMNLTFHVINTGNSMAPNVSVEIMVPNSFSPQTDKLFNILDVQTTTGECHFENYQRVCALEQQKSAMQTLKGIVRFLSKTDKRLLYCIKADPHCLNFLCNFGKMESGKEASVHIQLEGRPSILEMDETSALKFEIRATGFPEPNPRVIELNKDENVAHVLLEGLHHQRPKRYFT
T2 sequence (P26010 20-723 limits assumed): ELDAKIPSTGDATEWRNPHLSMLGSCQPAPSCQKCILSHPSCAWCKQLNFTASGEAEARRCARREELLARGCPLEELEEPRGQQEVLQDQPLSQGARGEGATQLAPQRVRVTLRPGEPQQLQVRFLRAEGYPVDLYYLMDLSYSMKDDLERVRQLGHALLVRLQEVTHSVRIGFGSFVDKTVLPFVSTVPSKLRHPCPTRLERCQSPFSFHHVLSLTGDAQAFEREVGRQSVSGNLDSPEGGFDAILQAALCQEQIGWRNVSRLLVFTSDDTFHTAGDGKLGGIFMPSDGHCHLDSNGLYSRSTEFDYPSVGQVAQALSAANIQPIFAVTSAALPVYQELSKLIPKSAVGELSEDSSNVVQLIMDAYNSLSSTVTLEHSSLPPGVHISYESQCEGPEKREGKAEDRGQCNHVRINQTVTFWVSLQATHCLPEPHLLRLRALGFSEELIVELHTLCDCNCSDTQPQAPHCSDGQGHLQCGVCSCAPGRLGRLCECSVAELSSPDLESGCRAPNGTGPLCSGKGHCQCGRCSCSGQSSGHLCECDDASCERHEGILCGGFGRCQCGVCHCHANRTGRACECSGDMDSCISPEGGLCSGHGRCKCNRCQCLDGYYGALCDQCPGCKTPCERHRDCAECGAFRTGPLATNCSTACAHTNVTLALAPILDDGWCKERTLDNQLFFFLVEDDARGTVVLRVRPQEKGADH
T1 sequence (P13612 34-977 limits assumed, stated change not applied): as the sequence (P13612 34-977 limits assumed) above
T1 sequence (P05556 21-728 limits assumed, stated change not applied): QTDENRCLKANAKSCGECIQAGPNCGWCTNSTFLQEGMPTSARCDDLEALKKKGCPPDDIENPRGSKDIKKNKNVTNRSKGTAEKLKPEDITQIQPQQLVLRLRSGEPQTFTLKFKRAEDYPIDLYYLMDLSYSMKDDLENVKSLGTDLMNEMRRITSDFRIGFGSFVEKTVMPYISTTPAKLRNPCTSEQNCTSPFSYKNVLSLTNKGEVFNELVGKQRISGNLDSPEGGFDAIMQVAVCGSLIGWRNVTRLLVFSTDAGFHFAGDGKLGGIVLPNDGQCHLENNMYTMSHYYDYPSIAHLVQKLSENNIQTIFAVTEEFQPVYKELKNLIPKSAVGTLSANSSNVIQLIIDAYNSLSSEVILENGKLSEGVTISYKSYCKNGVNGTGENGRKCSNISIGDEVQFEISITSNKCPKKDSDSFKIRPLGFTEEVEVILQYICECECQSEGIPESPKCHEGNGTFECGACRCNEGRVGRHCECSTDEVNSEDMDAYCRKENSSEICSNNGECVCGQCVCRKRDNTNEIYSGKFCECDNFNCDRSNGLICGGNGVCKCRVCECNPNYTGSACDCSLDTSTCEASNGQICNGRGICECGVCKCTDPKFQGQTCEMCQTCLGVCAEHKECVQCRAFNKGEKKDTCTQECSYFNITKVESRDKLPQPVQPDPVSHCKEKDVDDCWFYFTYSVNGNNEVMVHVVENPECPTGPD
Sequence of α4β1 (Homo sapiens, UniProt P05556+P13612) (P13612 34-1032): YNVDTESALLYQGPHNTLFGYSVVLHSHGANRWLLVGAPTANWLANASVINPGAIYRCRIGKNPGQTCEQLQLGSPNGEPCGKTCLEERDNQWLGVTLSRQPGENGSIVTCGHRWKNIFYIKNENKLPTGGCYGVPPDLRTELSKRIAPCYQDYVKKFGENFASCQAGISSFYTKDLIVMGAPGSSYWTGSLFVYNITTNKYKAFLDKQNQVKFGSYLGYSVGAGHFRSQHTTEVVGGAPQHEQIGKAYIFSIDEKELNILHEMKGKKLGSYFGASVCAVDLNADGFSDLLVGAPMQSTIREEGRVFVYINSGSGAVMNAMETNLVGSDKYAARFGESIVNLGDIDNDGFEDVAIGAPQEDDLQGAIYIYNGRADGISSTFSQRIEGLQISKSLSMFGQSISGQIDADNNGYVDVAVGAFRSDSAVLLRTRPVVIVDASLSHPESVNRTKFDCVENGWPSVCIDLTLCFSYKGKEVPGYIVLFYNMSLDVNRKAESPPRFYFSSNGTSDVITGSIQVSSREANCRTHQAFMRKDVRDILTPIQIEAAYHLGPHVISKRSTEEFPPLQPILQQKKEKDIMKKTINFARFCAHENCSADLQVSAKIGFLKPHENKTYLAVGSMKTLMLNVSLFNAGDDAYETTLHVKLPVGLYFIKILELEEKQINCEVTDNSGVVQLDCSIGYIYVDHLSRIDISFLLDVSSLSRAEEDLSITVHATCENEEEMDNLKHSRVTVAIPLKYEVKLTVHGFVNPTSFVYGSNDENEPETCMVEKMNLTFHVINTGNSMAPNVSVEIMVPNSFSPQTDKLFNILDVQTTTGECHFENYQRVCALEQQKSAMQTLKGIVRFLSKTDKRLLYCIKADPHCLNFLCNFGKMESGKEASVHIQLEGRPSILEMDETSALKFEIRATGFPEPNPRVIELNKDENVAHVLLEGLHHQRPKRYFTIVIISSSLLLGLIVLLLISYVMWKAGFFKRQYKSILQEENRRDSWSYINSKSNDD
Sequence of α4β1 (Homo sapiens, UniProt P05556+P13612) (P05556 21-798): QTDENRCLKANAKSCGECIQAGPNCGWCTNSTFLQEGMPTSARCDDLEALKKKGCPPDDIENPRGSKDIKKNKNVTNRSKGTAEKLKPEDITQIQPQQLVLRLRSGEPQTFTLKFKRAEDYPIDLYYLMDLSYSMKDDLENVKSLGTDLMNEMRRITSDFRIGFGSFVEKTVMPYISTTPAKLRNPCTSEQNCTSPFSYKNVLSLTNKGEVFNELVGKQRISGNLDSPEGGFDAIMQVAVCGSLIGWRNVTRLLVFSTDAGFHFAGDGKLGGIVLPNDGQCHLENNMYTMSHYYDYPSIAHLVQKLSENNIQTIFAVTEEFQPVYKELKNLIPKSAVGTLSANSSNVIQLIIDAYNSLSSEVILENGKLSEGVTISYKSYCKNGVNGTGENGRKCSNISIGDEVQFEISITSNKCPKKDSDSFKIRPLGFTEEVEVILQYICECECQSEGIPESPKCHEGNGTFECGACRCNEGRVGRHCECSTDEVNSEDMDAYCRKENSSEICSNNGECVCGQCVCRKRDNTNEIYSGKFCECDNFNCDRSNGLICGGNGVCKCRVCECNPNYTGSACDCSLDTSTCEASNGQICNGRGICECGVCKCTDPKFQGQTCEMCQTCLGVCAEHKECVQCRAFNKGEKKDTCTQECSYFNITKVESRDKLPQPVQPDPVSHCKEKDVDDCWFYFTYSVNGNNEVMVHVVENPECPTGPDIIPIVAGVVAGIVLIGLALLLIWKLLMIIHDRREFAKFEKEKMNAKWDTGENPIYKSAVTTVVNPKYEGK

For `CC(=O)N[C@@H]1C(=O)N(C)[C@@H](CCCNC(=N)N)C(=O)N[C@@H](CO)C(=O)N[C@@H](CC(=O)O)C(=O)N[C@@H]([C@@H](C)O)C(=O)N[C@@H](CC(C)C)C(=O)N[C@H](C(=O)N[C@@H](Cc2ccc3ccccc3c2)C(=O)N[C@H](CCC(=O)O)C(=O)N[C@H](CCCCNC(=O)COCC(=O)NCCCC[C@@H](NC(=O)[C@@H](CCC(=O)O)NC(=O)[C@H](Cc2ccc3ccccc3c2)NC(=O)[C@H]2NC(=O)[C@H](CC(C)C)NC(=O)[C@H]([C@@H](C)O)NC(=O)[C@H](CC(=O)O)NC(=O)[C@H](CO)NC(=O)[C@H](CCCNC(=N)N)N(C)C(=O)[C@@H](NC(C)=O)C(C)(C)SSC2(C)C)C(N)=O)C(N)=O)C(C)(C)SSC1(C)C` [compound 33] (I: Ac-[Pen][NMeR]SDTL[Pen][2Nal][dE][dK]-NH2 / II: Ac-[Pen][NMeR]SDTL[Pen][2Nal][dE][dK]-NH2; disulfide I:1-I:7, II:1-II:7; linker I:10-II:10 via Diglycolyl), the IC50 was 100 to 500 nM on α4β1 [1] and above 100000 nM at α4β1 [2].

As for `CC(=O)N[C@H]1CSSC[C@@H](C(=O)N[C@@H](CCCCNC(=O)CCOCCOCCOCCOCCOCCOCCOCCOCCOCCOCCOCCOCCOCCOCCOCCOCCOCCOCCOCCOCCOCCOCCOCCOCCOCCOCCC(=O)NCCCC[C@H](NC(=O)[C@@H]2CSSC[C@H](NC(C)=O)C(=O)N(C)[C@@H](CCCNC(=N)N)C(=O)N[C@@H](CO)C(=O)N[C@@H](CC(=O)O)C(=O)N[C@@H]([C@@H](C)O)C(=O)N[C@@H](CC(C)C)C(=O)N2)C(=O)O)C(=O)O)NC(=O)[C@H](CC(C)C)NC(=O)[C@H]([C@@H](C)O)NC(=O)[C@H](CC(=O)O)NC(=O)[C@H](CO)NC(=O)[C@H](CCCNC(=N)N)N(C)C1=O` [compound 200, (Ac-C-N-Me-R-S-D-T-L-C-K-OH)2-PEG25] (I: Ac-C[NMeR]SDTLCK-OH / II: Ac-C[NMeR]SDTLCK-OH; disulfide I:1-I:7, II:1-II:7 (inferred); linker I:8-II:8 via X1 (inferred)), the half-life at 20 μM was above 6 h in data set [3] and 1.47 h in “Plasma Stability Assay”. In addition, the half-life at 22 μM in data set [4] was 0.133 h.

`CC(=O)N[C@H]1CSSC(C)(C)[C@@H](C(=O)N[C@H](CCCCNC(=O)CN(CC(=O)NCCCC[C@@H](NC(=O)[C@H]2NC(=O)[C@H](CC(C)C)NC(=O)[C@H]([C@@H](C)O)NC(=O)[C@H](CC(=O)O)NC(=O)[C@H](CO)NC(=O)[C@H](CCCNC(=N)N)N(C)C(=O)[C@@H](NC(C)=O)CSSC2(C)C)C(N)=O)C(=O)CCN)C(N)=O)NC(=O)[C@H](CC(C)C)NC(=O)[C@H]([C@@H](C)O)NC(=O)[C@H](CC(=O)O)NC(=O)[C@H](CO)NC(=O)[C@H](CCCNC(=N)N)N(C)C1=O` [compound 203, (Ac-C-N-Me-R-S-D-T-L-Pen-k-NH2)2-IDA]: the half-life at 20 μM (in data set [3]; in the data set “Plasma Stability Assay”) was above 6 h throughout. The half-life at 22 μM in data set [4] was above 4.88 h.

As for `CC(=O)N[C@@H]1C(=O)N[C@@H](CCCNC(=N)N)C(=O)N[C@@H](CO)C(=O)N[C@@H](CC(=O)O)C(=O)N[C@@H]([C@@H](C)O)C(=O)N[C@@H](CC(C)C)C(=O)N[C@H](C(=O)N[C@H](CCCCN)C(N)=O)CSSC1(C)C` [compound 206, Ac-Pen-R-S-D-T-L-C-k-NH2] (Ac-[Pen]RSDTLC[dK]-NH2; disulfide 1-7), at rh integrin α4β7, the IC50 amounted to 97 nM. Moreover, in data set [4], the half-life at 22 μM is 0.433 h. Also, in data set [5], the “DTT Min” value came to 52 min.

A word on the IC50: it is the midpoint of a concentration-inhibition curve.
